From publication PMC5962642, “Dynamic imaging of adaptive stress response pathway activation for prediction of drug induced liver injury” (Archives of Toxicology, 2018)

How the values were obtained:
[1] = ref livertox.nih.gov database; cited from earlier work
[2] = ref Chen et al. [2016], cited from earlier work; for DILI con. (DILI-concern labeling): FDA DILI labeling; for Hepa. (hepatotoxicity class): FDA labeling in eight classes of hepatotoxicity
[3] = C-max obtained from FDA or literature; ref per compound (FDA, Dailymed, Xu, O’Brien, Khetani, Regenthal, Gustafsson, Dawson, Ogutu, Patel, Schmidt, Ravic, Keisu, Hu, Wagner); cited from earlier work
[4] = two classes made from the FDA DILI-concern labeling

SMILES	Metab (metabolic potential) [1]	DILI con. (DILI-concern labeling) [2]	Hepa. (hepatotoxicity class) [2]	Cmax [3] [µM]	Severity class [4]
CCOC(=O)[C@H](CCc1ccccc1)N[C@@H](C)C(=O)N1CCC[C@H]1C(=O)O [Enalapril]	YES	Less-DC	7	0.4	–
Br.COc1ccc2c(c1)[C@]13CCCC[C@@H]1[C@H](C2)N(C)CC3 [Dextromethorphan hbr]	–	No-DC	–	0.022	Non-sev.
C[C@H]1O[C@H](O[C@H]2[C@H](O)[C@@H](O)[C@@H](O[C@H]3[C@H](O)[C@@H](O)C(O)O[C@@H]3CO)O[C@@H]2CO)[C@H](O)[C@@H](O)[C@@H]1N[C@H]1C=C(CO)[C@@H](O)[C@H](O)[C@H]1O (stereo partly shown) [Acarbose]	–	–	–	0.15	Sev.
CCC1(c2ccccc2)C(=O)NC(=O)NC1=O [Phenobarbital]	–	–	3	146	Non-sev.
NC(N)=Nc1nc(CSCCC(N)=NS(N)(=O)=O)cs1 [Famotidine]	YES	Less-DC	3	0.308	–
CCOC(=O)C(C)(C)Oc1ccc(Cl)cc1 [Clofibrate]	YES	Less-DC	3	470	–
CSc1ccc2c(c1)N(CCC1CCCCN1C)c1ccccc1S2 (stereo not shown) [Thiondazine]	YES	–	–	0.55	Non-sev.
CCN(CC)C(=O)/C(C#N)=C/c1cc(O)c(O)c([N+](=O)[O-])c1 [Entacapone]	YES	Less-DC	1	3.93	Non-sev.
Cc1c(C)c2c(c(C)c1O)CCC(C)(COc1ccc(CC3SC(=O)NC3=O)cc1)O2 (stereo not shown) [Troghtazone]	YES	Most-DC	8	–	Sev.
O=C1NC(=O)C(c2ccccc2)(c2ccccc2)N1 [Phenytoin]	YES	Most-DC	8	21.7	–
NC[C@H]1O[C@H](O[C@H]2[C@H](O)[C@@H](O[C@H]3O[C@H](CO)[C@@H](O)[C@H](N)[C@H]3O)[C@H](N)C[C@@H]2N)[C@H](O)[C@@H](O)[C@@H]1O [Kanamycin]	–	–	–	60.1	Non-sev.
C[N+](C)(C)CCOC(=O)CCC(=O)OCC[N+](C)(C)C [Succinylcholine]	–	No-DC	1	138	Non-sev.
CC(C)NNC(=O)c1ccncc1 [Iboniazid]	YES	Most-DC	8	76.6	Sev.
CC(C(=O)O)c1ccc(-c2ccccc2)c(F)c1 (stereo not shown) [Flurbiprofen]	YES	Amb.-DC	3	57.3	–
Cc1ccc(C(=O)c2cc(O)c(O)c([N+](=O)[O-])c2)cc1 [Tolcapone]	YES	Most-DC	8	22	Sev.
COc1cc(C(=O)NS(=O)(=O)c2ccccc2C)ccc1Cc1cn(C)c2ccc(NC(=O)OC3CCCC3)cc12 [Zafirlukast]	YES	Most-DC	8	1.21	–
CN1C(=O)CCS(=O)(=O)C1c1ccc(Cl)cc1 (stereo not shown) [Chlormezanone]	–	Most-DC	8	10.6	Sev.

SMILES	Metab (metabolic potential) [1]	DILI con. (DILI-concern labeling) [2]	Hepa. (hepatotoxicity class) [2]	Cmax [3] [µM]	Severity class [4]
Cc1cccc(C)c1OCC(C)N (stereo not shown) [Mexiletine]	YES	–	3	3.83	–
COc1cc(NC(C)CCCN)c2ncccc2c1 (stereo not shown) [Primaquine]	–	No-DC	1	–	Non-sev.
CC[N+](C)(C)c1cccc(O)c1 [Edrophonium]	–	–	1	60.2	Non-sev.
Nc1ncnc2c1ncn2CCOCP(=O)(O)O [Adefovir]	–	Less-DC	2	0.085	Non-sev.
Oc1ncnc2[nH]ncc12 [Allopunnol]	–	Most-DC	8	13.8	Sev.
CN(C)C/C=C(/c1ccc(Br)cc1)c1cccnc1 [Zimehdine]	–	Most-DC	8	–	Sev.
CCc1ccc(CCOc2ccc(CC3SC(=O)NC3=O)cc2)nc1 (stereo not shown) [Pioghtazone]	–	Less-DC	3	2.95	Non-sev.
CNC(=C[N+](=O)[O-])NCCSCc1csc(CN(C)C)n1 [Nizatidine]	YES	Less-DC	5	4	–
C[N+](C)(C)CC(=O)O [Betaine]	–	No-DC	1	940	Non-sev.
CO[C@H]1/C=C/O[C@@]2(C)Oc3c(C)c(O)c4c(O)c(c(/C=N/N5CCN(C)CC5)c(O)c4c3C2=O)NC(=O)/C(C)=C\C=C\[C@H](C)[C@H](O)[C@@H](C)[C@@H](O)[C@@H](C)[C@H](OC(C)=O)[C@@H]1C [Rifampicin]	YES	Most-DC	–	15	–
OC(CCN1CCCC1)(c1ccccc1)C1CCCCC1 (stereo not shown) [Procychdine]	–	–	–	–	Non-sev.
CN/C(=N/CCSCc1nc[nH]c1C)NC#N [Cimetidine]	YES	Less-DC	2	11.9	–
CC(O)(CS(=O)(=O)c1ccc(F)cc1)C(=O)Nc1ccc(C#N)c(C(F)(F)F)c1 (stereo not shown) [Bicalutamide]	YES	–	8	1.97	–
COc1ccc2[nH]c([S+]([O-])Cc3ncc(C)c(OC)c3C)nc2c1 (stereo not shown) [Omeprazole]	YES	Less-DC	4	4.7	–
O=C(CCCN1CCC(O)(c2ccc(Cl)cc2)CC1)c1ccc(F)cc1 [Haloperidol]	YES	–	5	0.005	–
CC(C(=O)O)c1cccc(Oc2ccccc2)c1 (stereo not shown) [Fenoprofen]	YES	Most-DC	8	58.2	–
